These results are taken from ChEMBL document CHEMBL5728432, “Potent and selective mu opioid receptor modulators” (2021).

What is called Ki is the dissociation constant of the complex between target and ligand, obtained from inhibition or displacement.

The target in the assay is Mu-type opioid receptor (Homo sapiens, UniProt P35372). Nature of the assay: Competition Binding Assay: The competition binding assay was conducted to determine the affinity and selectivity of the synthesized compounds to MOR over KOR and DOR. The Kd and Bmax values for [3H]NLX at MOR and [3H]DPN at KOR had been determined previously. […] [3H]NLX was used to label MOR whilst [3H]DPN was used to label both DOR and KOR. The potency of the new compounds in displacing the specific binding of the radioligand was determined by linear regression analysis of Hill plots.
Mu-type opioid receptor, sequence (P35372 whole entry): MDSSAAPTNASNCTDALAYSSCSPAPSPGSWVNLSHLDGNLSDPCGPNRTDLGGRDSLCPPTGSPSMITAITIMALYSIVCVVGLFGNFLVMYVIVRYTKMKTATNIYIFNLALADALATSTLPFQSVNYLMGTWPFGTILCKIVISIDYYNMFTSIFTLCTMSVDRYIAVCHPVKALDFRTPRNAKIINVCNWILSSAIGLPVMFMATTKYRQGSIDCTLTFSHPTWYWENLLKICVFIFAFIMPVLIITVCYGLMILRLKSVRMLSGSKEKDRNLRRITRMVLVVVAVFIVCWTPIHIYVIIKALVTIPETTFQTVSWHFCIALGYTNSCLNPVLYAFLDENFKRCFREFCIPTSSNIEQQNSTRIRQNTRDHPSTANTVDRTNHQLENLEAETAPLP
On to `O=C(Cc1c[nH]c2ccccc12)N[C@@H]1CC[C@@]2(O)[C@H]3Cc4ccc(O)c5c4[C@@]2(CCN3CC2CC2)[C@H]1O5`, for which the Ki amounted to 241 pM.

Take `O=C(N[C@H]1CC[C@@]2(O)[C@H]3Cc4ccc(O)c5c4[C@@]2(CCN3CC2CC2)[C@H]1O5)c1ccc2cc[nH]c2c1`: the Ki amounted to 434 pM.

`O=C(CCCc1c[nH]c2ccccc12)N[C@@H]1CC[C@@]2(O)[C@H]3Cc4ccc(O)c5c4[C@@]2(CCN3CC2CC2)[C@H]1O5` gave a Ki of 203 pM.

In the case of `O=C(CCc1c[nH]c2ccccc12)N[C@@H]1CC[C@@]2(O)[C@H]3Cc4ccc(O)c5c4[C@@]2(CCN3CC2CC2)[C@H]1O5`, the Ki came to 167 pM. The figure for `O=C(CCCc1c[nH]c2ccccc12)N[C@H]1CC[C@@]2(O)[C@H]3Cc4ccc(O)c5c4[C@@]2(CCN3CC2CC2)[C@H]1O5` is 293 pM; for `O=C(N[C@H]1CC[C@@]2(O)[C@H]3Cc4ccc(O)c5c4[C@@]2(CCN3CC2CC2)[C@H]1O5)c1cccc2[nH]ccc12` it is 264 pM; for `O=C(N[C@H]1CC[C@@]2(O)[C@H]3Cc4ccc(O)c5c4[C@@]2(CCN3CC2CC2)[C@H]1O5)c1c[nH]c2ccccc12` it is 288 pM. For `O=C(N[C@H]1CC[C@@]2(O)[C@H]3Cc4ccc(O)c5c4[C@@]2(CCN3CC2CC2)[C@H]1O5)c1cc2ccccc2[nH]1` the value was 363 pM.

Turning to `O=C(N[C@H]1CC[C@@]2(O)[C@H]3Cc4ccc(O)c5c4[C@@]2(CCN3CC2CC2)[C@H]1O5)c1ccc2[nH]ccc2c1`, affinity was put at a Ki of 763 pM. The figure for `O=C(Cc1c[nH]c2ccccc12)N[C@H]1CC[C@@]2(O)[C@H]3Cc4ccc(O)c5c4[C@@]2(CCN3CC2CC2)[C@H]1O5` is 837 pM. The figure for `O=C(CCc1c[nH]c2ccccc12)N[C@H]1CC[C@@]2(O)[C@H]3Cc4ccc(O)c5c4[C@@]2(CCN3CC2CC2)[C@H]1O5` is 437 pM.
